Measured values published in DBAASP.
Values after ≈ are worked out from the molar mass of the structure shown.

Experiments:
Assay in all cases: ≥ marks a high value that may be exact or a test limit, other limits are often not marked, values filed in µg/mL are converted to µM
[1] = tested on: Candida albicans ATCC 10231
Botrytis cinerea = tested on: Botrytis cinerea
[2] = tested on: Escherichia coli ATCC 11775
[3] = tested on: Staphylococcus aureus ATCC 12600
[4] = tested on: Candida albicans ATCC 20032
[5] = tested on: Staphylococcus aureus ATCC 25923
[6] = tested on: Staphylococcus aureus Cowan 1
Bacillus megaterium Bm11 = tested on: Bacillus megaterium Bm11
[7] = tested on: Escherichia coli ATCC 25922
[8] = tested on: Yersinia pseudotuberculosis YPIII
Staphylococcus capitis 1 = tested on: Staphylococcus capitis 1
Escherichia coli JM109 = tested on: Escherichia coli JM109
[9] = tested on: Staphylococcus aureus ATCC 6538P
Staphylococcus aureus = tested on: Staphylococcus aureus
[10] = tested on: Bacillus subtilis ATCC 6633
Listeria innocua = tested on: Listeria innocua
Escherichia coli = tested on: Escherichia coli
[11] = tested on: Batrachochytrium dendrobatidis
Pasteurella multocida = tested on: Pasteurella multocida
Streptococcus uberis = tested on: Streptococcus uberis
Leuconostoc lactis = tested on: Leuconostoc lactis
Bacillus cereus = tested on: Bacillus cereus
[12] = tested on: Staphylococcus epidermidis
Micrococcus luteus = tested on: Micrococcus luteus
[13] = tested on: Lacticaseibacillus casei ATCC 4646
[14] = tested on: Veillonella atypica PK1910
Streptococcus mutans = tested on: Streptococcus mutans
[15] = tested on: Streptococcus mitis ATCC 903
[16] = tested on: Streptococcus sanguinis NY101
[17] = tested on: Streptococcus gordonii Challis DL1

Compound `CC[C@H](C)[C@H](NC(=O)CNC(=O)[C@H](CO)NC(=O)[C@H](CC(C)C)NC(=O)[C@H](CC(C)C)NC(=O)CNC(=O)[C@@H](NC(=O)[C@@H](NC(=O)[C@@H]1CCCN1C(=O)CNC(=O)[C@@H](N)Cc1ccccc1)C(C)C)[C@@H](C)CC)C(=O)N[C@@H](CC(C)C)C(=O)N[C@@H](CCCCN)C(=O)N[C@@H](CO)C(=O)N[C@@H](CC(C)C)C(=O)N[C@@H](CC(C)C)C(=O)O` [FGPVIGLLSGILKSLL] has an MIC [1] of over 200 µM, an MIC (Botrytis cinerea) of 5 µM (≈ 8.14 µg/mL) and an MIC [2] of at least 200 µM. The MIC [3] was at least 50 µM.

`CC[C@H](C)[C@@H]1NC(=O)[C@H](CO)NC(=O)[C@H](CCCCN)NC(=O)[C@H]([C@@H](C)O)NC(=O)[C@H](Cc2c[nH]c3ccccc23)NC(=O)[C@@H](NC(=O)CNC(=O)[C@H](CCCCN)NC(=O)[C@H](CC(C)C)NC(=O)[C@H](C)NC(=O)[C@H](C)N)CSSC[C@@H](C(=O)N[C@@H](CO)C(=O)NCC(=O)N[C@@H](CCCCN)C(=O)N[C@@H](CCCN=C(N)N)C(=O)O)NC(=O)[C@@H]2CCCN2C(=O)[C@H](CCCCN)NC(=O)[C@@H]2CCCN2C(=O)[C@@H]2CCCN2C1=O` [AALKGCWTKSIPPKPCSGKR] was tested, and the MIC [4] was 23.4 µM (≈ 49.8 µg/mL) and the MIC [5] was 11.7 µM (≈ 24.9 µg/mL).

Compound `CC[C@H](C)[C@H](NC(=O)[C@H](C)NC(=O)[C@H](CO)NC(=O)[C@H](CC(C)C)NC(=O)[C@@H](NC(=O)[C@H](CCCN=C(N)N)NC(=O)CNC(=O)[C@@H](NC(=O)[C@H](CC(C)C)NC(=O)[C@@H]1CCCN1C(=O)[C@H](CC(C)C)NC(=O)[C@@H](N)Cc1ccccc1)[C@@H](C)CC)C(C)C)C(=O)N[C@@H](CC(C)C)C(N)=O` [FLPLIGRVLSAIL] has an MIC [6] of 2.5 µM (≈ 3.53 µg/mL), an MIC [1] of 2.5 µM (≈ 3.53 µg/mL) and an MIC (Bacillus megaterium Bm11) of 2.5 µM (≈ 3.53 µg/mL). For the same compound, the MIC [7] was over 40 µM, the MIC [8] was 20 µM (≈ 28.2 µg/mL) and the MIC (Staphylococcus capitis 1) was 5 µM (≈ 7.05 µg/mL).

Work on `CC[C@H](C)[C@H](NC(=O)[C@H](C)NC(=O)[C@H](CC(C)C)NC(=O)[C@H](CS)NC(=O)[C@H](Cc1cnc[nH]1)NC(=O)[C@H](C)NC(=O)[C@H](C)NC(=O)[C@H](CS)NC(=O)[C@@H](N)CC(C)C)C(=O)NCC(=O)N[C@@H](CCCN=C(N)N)C(=O)N[C@@H](CCCN=C(N)N)C(N)=O` [LCAAHCLAIGRR] yielded an MIC (Escherichia coli JM109) of at least 37.4 µM, an MIC [9] of 14 µM and an MIC (Staphylococcus aureus) of over 49.9 µM.

`CC[C@H](C)[C@H](NC(=O)CN)C(=O)NCC(=O)NCC(=O)N[C@@H](CCCCN)C(=O)N[C@H](C(=O)N[C@@H](CC(C)C)C(=O)NCC(=O)NCC(=O)N[C@@H](CC(C)C)C(=O)N[C@@H](CCCN=C(N)N)C(=O)N[C@H](C(=O)N[C@@H](C)C(=O)N[C@@H](CC(C)C)C(=O)N[C@@H](CCCCN)C(=O)NCC(=O)N[C@@H](C)C(=O)N[C@@H](C)C(=O)N[C@@H](CCCCN)C(=O)N[C@@H](CCC(=O)O)C(=O)N[C@@H](CC(C)C)C(=O)N[C@@H](C)C(=O)N[C@@H](C)C(=O)N[C@H](C(=O)N[C@@H](Cc1ccc(O)cc1)C(=O)N[C@@H](CC(C)C)C(=O)N[C@@H](Cc1cnc[nH]1)C(N)=O)[C@@H](C)O)[C@@H](C)O)[C@@H](C)CC` [GIGGKILGGLRTALKGAAKELAATYLH] was tested, and the MIC [10] was 28 µM (≈ 75 µg/mL), the MIC [4] was at least 37.3 µM and the MIC [7] was 3.51 µM (≈ 9.4 µg/mL). For the same compound, the MIC [5] was 1.75 µM (≈ 4.7 µg/mL).

`CC[C@H](C)[C@H](N)C(=O)N[C@@H](CC(C)C)C(=O)N1CCC[C@H]1C(=O)N[C@@H](Cc1c[nH]c2ccccc12)C(=O)N[C@@H](CCCCN)C(=O)N[C@@H](Cc1c[nH]c2ccccc12)C(=O)N[C@@H](CCCCN)C(=O)N[C@@H](Cc1ccccc1)C(=O)N[C@@H](Cc1ccccc1)C(=O)N1CCC[C@H]1C(=O)N[C@@H](Cc1c[nH]c2ccccc12)C(=O)N[C@@H](CCCN=C(N)N)C(=O)N[C@@H](CCCN=C(N)N)C(N)=O` [ILPWKWKFFPWRR] gave an MIC (Escherichia coli JM109) of 1 µM (≈ 1.86 µg/mL).

`CC[C@H](C)[C@H](NC(=O)[C@@H](NC(=O)[C@H](C)NC(=O)[C@H](C)NC(=O)[C@@H](NC(=O)[C@H](CCCCN)NC(=O)[C@H](CCCCN)NC(=O)[C@@H](NC(=O)[C@@H](NC(=O)[C@H](C)NC(=O)[C@H](Cc1ccccc1)NC(=O)[C@H](CC(C)C)NC(=O)CN)C(C)C)[C@@H](C)CC)C(C)C)C(C)C)C(=O)N[C@@H](CCCCN)C(=O)N[C@@H](CCCCN)C(=O)N[C@@H](CC(C)C)C(N)=O` [GLFAVIKKVAAVIKKL] was tested, and the MIC (Listeria innocua) was 7.07 µM (≈ 12 µg/mL), the MIC (Escherichia coli) was 58.9 µM (≈ 99.9 µg/mL) and the MIC [11] was at least 141 µM. It also gave an MIC (Pasteurella multocida) of at least 58.9 µM, an MIC (Streptococcus uberis) of 7.07 µM (≈ 12 µg/mL) and an MIC (Leuconostoc lactis) of 0.883 µM (≈ 1.5 µg/mL). For the same compound, the MIC (Staphylococcus aureus) was 14.7 µM (≈ 25 µg/mL), the MIC (Bacillus cereus) was at least 58.9 µM and the MIC [12] was 1.77 µM (≈ 3 µg/mL). The MIC (Micrococcus luteus) was 14.7 µM (≈ 25 µg/mL).

With `NCCCC[C@H](NC(=O)[C@H](Cc1ccccc1)NC(=O)CNC(=O)CNC(=O)CNC(=O)[C@H](Cc1ccccc1)NC(=O)[C@H](Cc1c[nH]c2ccccc12)NC(=O)[C@H](CCCN=C(N)N)NC(=O)[C@H](Cc1c[nH]c2ccccc12)NC(=O)[C@H](CCCN=C(N)N)NC(=O)[C@H](Cc1c[nH]c2ccccc12)NC(=O)[C@@H](N)CCCN=C(N)N)C(=O)N[C@@H](CCCCN)C(=O)N[C@@H](Cc1ccccc1)C(=O)N[C@@H](Cc1c[nH]c2ccccc12)C(=O)N[C@@H](CCCCN)C(=O)N[C@@H](Cc1c[nH]c2ccccc12)C(=O)N[C@@H](Cc1ccccc1)C(=O)N[C@@H](CCCN=C(N)N)C(=O)N[C@@H](CCCN=C(N)N)C(=O)N[C@@H](Cc1ccccc1)C(N)=O` [RWRWRWFGGGFKKFWKWFRRF] the MIC [13] was 2.65 µM (≈ 8 µg/mL), the MIC [14] was 2.65 µM (≈ 8 µg/mL) and the MIC (Streptococcus mutans) was 1.87 µM (≈ 5.66 µg/mL). The MIC [15] was 21.2 µM (≈ 64 µg/mL), the MIC [16] was 2.65 µM (≈ 8 µg/mL) and the MIC [17] was 5.3 µM (≈ 16 µg/mL).

Work on `CC(C)C[C@H](NC(=O)CNC(=O)CNC(=O)CNC(=O)[C@H](Cc1ccccc1)NC(=O)[C@H](Cc1c[nH]c2ccccc12)NC(=O)[C@H](CCCN=C(N)N)NC(=O)[C@H](Cc1c[nH]c2ccccc12)NC(=O)[C@H](CCCN=C(N)N)NC(=O)[C@H](Cc1c[nH]c2ccccc12)NC(=O)[C@@H](N)CCCN=C(N)N)C(=O)N[C@@H](CCCCN)C(=O)N[C@@H](CCCN=C(N)N)C(=O)N[C@@H](Cc1ccccc1)C(=O)N[C@@H](CC(C)C)C(=O)N[C@@H](CCCCN)C(=O)N[C@@H](Cc1c[nH]c2ccccc12)C(=O)N[C@@H](Cc1ccccc1)C(=O)N[C@@H](CCCCN)C(=O)N[C@@H](CCCN=C(N)N)C(=O)N[C@@H](Cc1ccccc1)C(N)=O` [RWRWRWFGGGLKRFLKWFKRF] yielded an MIC [13] of 2.74 µM (≈ 8 µg/mL), an MIC [14] of 5.49 µM (≈ 16 µg/mL) and an MIC (Streptococcus mutans) of 2.74 µM (≈ 8 µg/mL). The MIC [15] was 22 µM (≈ 64 µg/mL), the MIC [16] was 5.49 µM (≈ 16 µg/mL) and the MIC [17] was 11 µM (≈ 32 µg/mL).

In the case of `CC[C@H](C)[C@H](NC(=O)CNC(=O)[C@H](CO)NC(=O)[C@H](CC(C)C)NC(=O)[C@@H](NC(=O)[C@H](CCCN=C(N)N)NC(=O)CNC(=O)[C@@H](NC(=O)[C@H](CC(C)C)NC(=O)[C@@H]1CCCN1C(=O)[C@H](C)NC(=O)[C@@H](N)Cc1ccccc1)[C@@H](C)CC)C(C)C)C(=O)N[C@@H](CC(C)C)C(N)=O` [FAPLIGRVLSGIL], the MIC [6] is reported as 20 µM (≈ 27.1 µg/mL), the MIC [1] is reported as 10 µM (≈ 13.5 µg/mL) and the MIC (Bacillus megaterium Bm11) is reported as 5 µM (≈ 6.77 µg/mL). It also gave an MIC [7] of over 40 µM, an MIC [8] of at least 40 µM and an MIC (Staphylococcus capitis 1) of 20 µM (≈ 27.1 µg/mL).
